Measured values taken from patent US20040110802A1, “Antibacterial benzoic acid derivatives” (priority 2002, published 2004).
Converted amounts (≈) assume the structure as drawn.

Test system: SAUR 9218
Experiment: MIC Test Method, standard agar dilution
Assay type: cell-based
Settings: agar dilution, Mueller Hinton agar, incubated overnight at 35° C.; lowest concentration that inhibits visible growth; read-out: SAUR 9218 MIC
How it was run: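 Agar dilution in Mueller Hinton agar with serial 2-fold compound dilutions. Staphylococcus aureus strain 9218 spotted at approximately 10^4 to 10^5 cells per spot, incubated overnight at 35 °C; MIC (μg/ml) is the lowest concentration preventing visible growth.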

Row | SMILES | MIC [µg/mL]
1 | COCOCC(CCc1cc(C(=O)Nc2ccc(Br)cc2C(=O)O)no1)OCOC (stereo not shown) | 8 (≈ 16.4 µM)
2 | Cn1c(C(=O)Nc2ccc(Cl)cc2C(=O)O)cc2cccc(S(=O)(=O)c3ccccc3)c21 | 0.125 (≈ 0.267 µM)
3 | CS(=O)(=O)c1ncc(Cl)c(C(=O)Nc2ccc(Cl)cc2C(=O)O)n1 | > 128
4 | N#Cc1ccc(NC(=O)c2ccc(SCc3nsc(Cl)n3)nc2)c(C(=O)O)c1 | 0.25 (≈ 0.579 µM)
5 | CCCCCn1c(C(=O)Nc2ccc(Br)cc2C(=O)O)cc2ccccc21 | 2 (≈ 4.66 µM)
6 | O=C(Nc1ccc(Br)cc1C(=O)O)c1cc(-c2ccccc2F)on1 | 0.5 (≈ 1.23 µM)
7 | Cc1sc(C(=O)Nc2ccc(C#N)cc2C(=O)O)cc1S(=O)(=O)N(CCC#N)Cc1ccccc1 | 64 (≈ 126 µM)
8 | COCCOCCCSc1cnc(C(=O)Nc2ccc(C#N)cc2C(=O)O)cn1 | 1 (≈ 2.4 µM)
9 | COc1ccccc1-c1cc(C(=O)Nc2ccc(C#N)cc2C(=O)O)no1 | 0.125 (≈ 0.344 µM)
10 | CS(=O)(=O)Nc1ccc(-c2cc3onc(C(=O)Nc4ccc(C#N)cc4C(=O)O)c3cc2NS(C)(=O)=O)c(C(F)(F)F)c1 | 0.125 (≈ 0.196 µM)
11 | Cc1sc(C(=O)Nc2ccc(C#N)cc2C(=O)O)cc1S(=O)(=O)N1CCC(O)(c2ccc(Br)cc2)CC1 | 32 (≈ 52.9 µM)
12 | O=C(O)c1cc(Br)ccc1NC(=O)c1cc(-c2ccccc2)nc2ccccc12 | 64 (≈ 143 µM)
13 | CCOCCOCCOc1ccccc1-c1cc(C(=O)Nc2ccc(C#N)cc2C(=O)O)no1 | 0.5 (≈ 1.07 µM)
14 | COCCn1c(C(=O)Nc2ccc(Cl)cc2C(=O)O)cc2ccccc21 | 16 (≈ 42.9 µM)
15 | N#Cc1ccc(NC(=O)c2cc3cccc4c3n2CCC4=O)c(C(=O)O)c1 | 1 (≈ 2.78 µM)
16 | N#Cc1ccc(NC(=O)c2noc3cc(N)ccc23)c(C(=O)O)c1 | 0.5 (≈ 1.55 µM)
17 | O=C(Nc1ccc(Br)cc1C(=O)O)c1cc(SCc2ccccc2)ccn1 | 2 (≈ 4.51 µM)
18 | COc1ccccc1-c1cc(C(=O)Nc2ccc(Cl)cc2C(=O)O)no1 | 0.125 (≈ 0.335 µM)
19 | N#Cc1ccc(NC(=O)c2cc3cccc(NC(=O)C4CCC4)c3[nH]2)c(C(=O)O)c1 | 0.5 (≈ 1.24 µM)
20 | CCCCSc1ccc(C(=O)Nc2ccc(C#N)cc2C(=O)O)cn1 | 0.25 (≈ 0.703 µM)
21 | N#Cc1ccc(NC(=O)c2cc3cccc4c3n2CC/C4=N\OCc2ccccc2)c(C(=O)O)c1 | 0.5 (≈ 1.08 µM)
22 | N#Cc1ccc(NC(=O)c2cc3cccc(NC(=O)CC4CCCC4)c3[nH]2)c(C(=O)O)c1 | 1 (≈ 2.32 µM)
23 | N#Cc1ccc(NC(=O)c2cc(CN3CCOCC3)on2)c(C(=O)O)c1 | 16 (≈ 44.9 µM)
24 | CNS(=O)(=O)c1ccc2onc(C(=O)Nc3ccc(Br)cc3C(=O)O)c2c1 | 0.125 (≈ 0.275 µM)
25 | Cc1ccccc1CC(=O)Nc1cccc2cc(C(=O)Nc3ccc(C#N)cc3C(=O)O)[nH]c12 | 0.25 (≈ 0.553 µM)

Row | SMILES | MIC [µg/mL]
26 | Cc1sc(C(=O)Nc2ccc(Br)cc2C(=O)O)cc1S(=O)(=O)N1CCc2ccc(Cl)cc21 | 1 (≈ 1.8 µM)
27 | CC(C)Cn1c(C(=O)Nc2ccc(Br)cc2C(=O)O)cc2ccccc21 | 2 (≈ 4.82 µM)
28 | C=CCn1c(C(=O)Nc2ccc(Cl)cc2C(=O)O)cc2ccccc21 | 1 (≈ 2.82 µM)
29 | COc1cccc(CC(=O)Nc2cccc3cc(C(=O)Nc4ccc(C#N)cc4C(=O)O)[nH]c23)c1 | 0.5 (≈ 1.07 µM)
30 | N#Cc1ccc(NC(=O)c2cc3cccc(NC(=O)c4ccc(F)cc4F)c3[nH]2)c(C(=O)O)c1 | 1 (≈ 2.17 µM)
31 | N#Cc1ccc(NC(=O)c2noc3ccc(S(=O)(=O)N4CCc5cc(Cl)ccc54)cc23)c(C(=O)O)c1 | 0.03 (≈ 0.0574 µM)
32 | O=C(Nc1ccc(Cl)cc1C(=O)O)c1cc(-c2ccccc2Cl)on1 | 0.5 (≈ 1.33 µM)
33 | Cn1c(C(=O)Nc2ccc(C#N)cc2C(=O)O)cc2cccc(O/C=C3/COC(C)(C)O3)c21 | 0.25 (≈ 0.559 µM)
34 | N#Cc1ccc(NC(=O)c2noc3cc(Cl)ccc23)c(C(=O)O)c1 | 1 (≈ 2.93 µM)
35 | N#Cc1ccc(NC(=O)c2cc3ccccc3n2Cc2ccccc2)c(C(=O)O)c1 | 8 (≈ 20.2 µM)
36 | O=C(O)c1cc(Br)ccc1NC(=O)c1noc2ccc(S(=O)(=O)NCc3ccccc3)cc12 | 0.06 (≈ 0.113 µM)
37 | Cn1nc(-c2ccccc2)cc1C(=O)Nc1ccc(Br)cc1C(=O)O | 64 (≈ 160 µM)
38 | Cc1sc(C(=O)Nc2ccc(Br)cc2C(=O)O)cc1S(=O)(=O)NCCc1ccc(N)cc1 | 32 (≈ 59.4 µM)
39 | CC12CCC(C(=O)Nc3cccc4cc(C(=O)Nc5ccc(C#N)cc5C(=O)O)[nH]c34)(OC1=O)C2(C)C (stereo not shown) | 8 (≈ 16 µM)
40 | N#Cc1ccc(NC(=O)c2cc3ccccc3cn2)c(C(=O)O)c1 | 1 (≈ 3.15 µM)
41 | O=C(Nc1ccc(Br)cc1C(=O)O)c1cc(-c2ccc3c(c2)OCO3)on1 | 0.125 (≈ 0.29 µM)
42 | O=C(Nc1ccc(Br)cc1C(=O)O)c1cccs1 | > 128
43 | N#Cc1ccc(NC(=O)c2ccsc2)c(C(=O)O)c1 | > 128
44 | CN(c1ccc(Cl)cc1)S(=O)(=O)c1cc(C(=O)Nc2ccc(Br)cc2C(=O)O)c[n+]([O-])c1 | 8 (≈ 14.8 µM)
45 | Cc1sc(C(=O)Nc2ccc(C#N)cc2C(=O)O)cc1S(=O)(=O)N1CCCCCC1 | 8 (≈ 17.9 µM)
46 | N#Cc1ccc(NC(=O)c2cc(-c3ccccc3Oc3ccc(-c4ccccc4)cc3)on2)c(C(=O)O)c1 | 16 (≈ 31.9 µM)
47 | C#CCCOCC(O)COc1cccc2cc(C(=O)Nc3ccc(C#N)cc3C(=O)O)n(C)c12 (stereo not shown) | 0.5 (≈ 1.08 µM)
48 | O=C(Nc1ccc(-c2ccccc2C(F)(F)F)cc1C(=O)O)c1cc(-c2ccccc2F)on1 | 8 (≈ 17 µM)
49 | COc1ccc(CNc2cnc(C(=O)Nc3ccc(N)cc3C(=O)O)cn2)cc1 | 0.25 (≈ 0.635 µM)
